Experimental data published in ChEMBL document CHEMBL5518181, “Studies of antibacterial activity (in vitro and in vivo) and mode of action for des-acyl tridecaptins (DATs)” (Eur J Med Chem, 2024).

How the values were obtained:
Type in all cases: functional
Klebsiella pneumoniae [1] = assay: Antibacterial activity against Klebsiella pneumoniae ATCC 43816 assessed as inhibition of bacterial growth incubated for 18 hrs
Klebsiella aerogenes = assay: Antibacterial activity against Enterobacter aerogenes ATCC 13048 assessed as inhibition of bacterial growth incubated for 18 hrs
Escherichia coli [2] = assay: Antibacterial activity against Escherichia coli Swiss 9 harboring mcr-1 gene assessed as inhibition of bacterial growth incubated for 18 hrs
Escherichia coli [3] = assay: Antibacterial activity against Escherichia coli ATCC BAA-2469 expressing NDM-1 assessed as inhibition of bacterial growth incubated for 18 hrs
Citrobacter freundii = assay: Antibacterial activity against Citrobacter freundii ATCC 8090 assessed as inhibition of bacterial growth incubated for 18 hrs
Klebsiella pneumoniae [4] = assay: Antibacterial activity against Klebsiella pneumoniae ATCC BAA-2470 expressing NDM-1 assessed as inhibition of bacterial growth incubated for 18 hrs
Escherichia coli [5] = assay: Antibacterial activity against Escherichia coli panel (100 strains) assessed as inhibition of bacterial growth
Proteus mirabilis = assay: Antibacterial activity against Proteus mirabilis ATCC 25933 assessed as inhibition of bacterial growth incubated for 18 hrs
Escherichia coli [6] = assay: Antibacterial activity against wild-type Escherichia coli ATCC 25922 assessed as inhibition of bacterial growth incubated for 18 hrs
Enterobacter cloacae = assay: Antibacterial activity against Enterobacter cloacae ATCC 23355 assessed as inhibition of bacterial growth incubated for 18 hrs
Pseudomonas aeruginosa = assay: Antibacterial activity against efflux-deficient Pseudomonas aeruginosa PAO750 assessed as inhibition of bacterial growth incubated for 18 hrs
Providencia stuartii = assay: Antibacterial activity against Providencia stuartii ATCC 25826 assessed as inhibition of bacterial growth incubated for 18 hrs
Klebsiella pneumoniae [7] = assay: Antibacterial activity against wild-type Klebsiella pneumoniae ATCC 13883 assessed as inhibition of bacterial growth incubated for 18 hrs
Escherichia coli [8] = assay: Antibacterial activity against Escherichia coli Swiss 7 harboring mcr-1 gene assessed as inhibition of bacterial growth incubated for 18 hrs
Serratia marcescens = assay: Antibacterial activity against intrinsically colistin resistant Serratia marcescens ATCC 13880 assessed as inhibition of bacterial growth incubated for 18 hrs
Klebsiella pneumoniae [9] = assay: Antibacterial activity against Klebsiella pneumoniae panel (100 strains) assessed as inhibition of bacterial growth
Morganella morganii = assay: Antibacterial activity against Morganella morganii ATCC 25830 assessed as inhibition of bacterial growth incubated for 18 hrs
Staphylococcus aureus = assay: Antibacterial activity against wild type Staphylococcus aureus USA300 assessed as inhibition of bacterial growth incubated for 18 hrs
Escherichia coli [10] = assay: Antibacterial activity against colistin resistant Escherichia coli NCTC 13846 harboring mcr-1 gene assessed as inhibition of bacterial growth incubated for 18 hrs
Salmonella typhimurium = assay: Antibacterial activity against Salmonella typhimurium ATCC 13311 assessed as inhibition of bacterial growth incubated for 18 hrs; conditions: Salmonella enterica subsp. enterica serovar Typhimurium

## COLISTIN
Klebsiella pneumoniae [1]
  MIC100: 1 µg/mL
Klebsiella aerogenes
  MIC100: 2 µg/mL
Escherichia coli [2]
  MIC100: 8 µg/mL
Escherichia coli [3]
  MIC100: 2 µg/mL
Citrobacter freundii
  MIC100: 2 µg/mL
Klebsiella pneumoniae [4]
  MIC100: 4 µg/mL
Escherichia coli [5]
  MIC50: < 0.125 µg/mL
  MIC90: 4 µg/mL
Proteus mirabilis
  MIC100: > 32 µg/mL
Escherichia coli [6]
  MIC100: 0.5 µg/mL
Enterobacter cloacae
  MIC100: 2 µg/mL
Pseudomonas aeruginosa
  MIC100: 2 µg/mL
Providencia stuartii
  MIC100: > 32 µg/mL
Klebsiella pneumoniae [7]
  MIC100: 2 µg/mL
Escherichia coli [8]
  MIC100: 8 µg/mL
Serratia marcescens
  MIC100: > 32 µg/mL
Klebsiella pneumoniae [9]
  MIC50: 0.5 µg/mL
  MIC90: > 16 µg/mL
Morganella morganii
  MIC100: > 32 µg/mL
Staphylococcus aureus
  MIC100: > 32 µg/mL
Escherichia coli [10]
  MIC100: 8 µg/mL
Salmonella typhimurium
  MIC100: 2 µg/mL
